≈ marks a conversion by molar mass, not a printed value.
What was measured:
[1] = Genotoxicity in Salmonella typhimurium TA1537 assessed as number of revertants at 4x10^-5 mg/plate incubated for 72 hrs in presence of liver S9 fraction by Ames test (reference value: 20 +/- 5); type: toxicity, subcellular; settings: salmonella enterica subsp. enterica serovar typhimurium, s9, 72 h
Staphylococcus aureus [2] = experiment: Antibacterial activity against Staphylococcus aureus ATCC 29213 at pH 7 incubated for 16 to 20 hrs by broth microdilution method; type: functional; settings: time 16-20 hrs
Staphylococcus aureus [3] = experiment: Antibacterial activity against Staphylococcus aureus ATCC 29213 at pH 8.6 incubated for 16 to 20 hrs by broth microdilution method; type: functional; settings: time 16-20 hrs
Escherichia coli [4] = experiment: Bactericidal activity against Escherichia coli ATCC 25922 incubated for 20 to 24 hrs by CLSI based analysis; type: functional; settings: time 20-24 hrs
Staphylococcus aureus [5] = experiment: Antibacterial activity against Staphylococcus aureus ATCC 29213 at pH 7.4 incubated for 16 to 20 hrs by broth microdilution method; type: functional; settings: time 16-20 hrs
Escherichia coli [6] = experiment: Antibacterial activity against Escherichia coli ATCC 25922 at pH 6.8 incubated for 16 to 20 hrs by broth microdilution method; type: functional; settings: time 16-20 hrs
[7] = Genotoxicity in Salmonella typhimurium TA1537 assessed as number of revertants at 1x10^-3 mg/plate incubated for 72 hrs in absence of liver S9 fraction by Ames test (reference value: 22.67 +/- 2.52); type: toxicity; settings: salmonella enterica subsp. enterica serovar typhimurium, s9, 72 h
[8] = Genotoxicity in Salmonella typhimurium TA98 assessed as number of revertants at 8x10^-6 mg/plate incubated for 72 hrs in absence of liver S9 fraction by Ames test (reference value: 57.33 +/- 3.06); type: toxicity; settings: salmonella enterica subsp. enterica serovar typhimurium, s9, 72 h
Escherichia coli [9] = experiment: Inhibition of protein synthesis in Escherichia coli ATCC 25922 assessed as reduction in protein content at […] measured upto 12 hrs by microporous enzyme labeling method relative to control; type: functional
[10] = system: Staphylococcus chromogenes; experiment: Antibacterial activity against Staphylococcus chromogenes incubated for 16 to 20 hrs by broth microdilution method; type: functional; settings: time 16-20 hrs
[11] = Genotoxicity in Salmonella typhimurium TA100 assessed as number of revertants at 4x10^-5 mg/plate incubated for 72 hrs in presence of liver S9 fraction by Ames test (reference value: 204.33 +/- 8.14); type: toxicity, subcellular; settings: salmonella enterica subsp. enterica serovar typhimurium, s9, 72 h
Escherichia coli [12] = experiment: Antibacterial activity against Escherichia coli ATCC 25922 incubated for 16 to 20 hrs using 10^7 CFU/ml bacterial inoculum by broth microdilution method; type: functional; settings: time 16-20 hrs
Escherichia coli [13] = experiment: Antibacterial activity against Escherichia coli ATCC 25922 at pH 7 incubated for 16 to 20 hrs by broth microdilution method; type: functional; settings: time 16-20 hrs
[14] = Genotoxicity in Salmonella typhimurium TA1535 assessed as number of revertants at 1.6x10^-6 mg/plate incubated for 72 hrs in absence of liver S9 fraction by Ames test (reference value: 14.33 +/- 0.58); type: toxicity; settings: salmonella enterica subsp. enterica serovar typhimurium, s9, 72 h

CC[C@H]1OC(=O)C[C@@H](O)[C@H](C)[C@@H](O[C@@H]2O[C@H](C)[C@@H](O)[C@H](N(C)C)[C@H]2O)[C@@H](CCN(C)Cc2cn(-c3cnc4ccccc4c3)nn2)C[C@@H](C)C(=O)/C=C/C(C)=C/[C@@H]1CN1CCCCCC1
Activity [1]: 14.67
MIC (Staphylococcus aureus [2]): 2 mg/L (≈ 2.22 µM)
MIC (Staphylococcus aureus [3]): ≤ 0.0625 mg/L
MBC (Escherichia coli [4]): 2 mg/L (≈ 2.22 µM)
MIC (Staphylococcus aureus [5]): 0.25 mg/L (≈ 0.277 µM)
MIC (Escherichia coli [6]): 8 mg/L (≈ 8.87 µM)
Activity [7]: 15.33
Activity [8]: 63.33
inhibition (Escherichia coli [9]): 32.1%
MIC [10]: 0.25 mg/L (≈ 0.277 µM)
Activity [11]: 162
MIC (Escherichia coli [12]): 1 mg/L (≈ 1.11 µM)
MIC (Escherichia coli [13]): 4 mg/L (≈ 4.43 µM)
Activity [14]: 6.67

— ChEMBL document CHEMBL5126592, “Design, synthesis and activity against drug-resistant bacteria evaluation of C-20, C-23 modified 5-O-mycaminosyltylonolide derivatives” (Eur J Med Chem, 2022)
